Laboratory results from US9282744B2, “Synergistic fungicide composition” (JIANGSU HUIFENG AGROCHEMICAL CO., LTD., priority 2012, dated 2016).
≈ marks a conversion by molar mass, not a printed value.

What was measured:
[1] = tested on: cucumber downy mildew pathogenic fungi; assay: Test of toxicity of compound benziothiazolinone and dimethomorph on cucumber downy mildew; format: in vivo; conditions: for ATI (actual toxicity index): benziothiazolinone as standard = 100; for EC50: cucumber downy mildew, Table 2
Procedure: (§1) The incidence of whole cucumber leaves was investigated according to test grading level, and the disease index and the prevention and treatment effect were calculated.
(§2) The prevention and treatment effect was converted into probability values (y), the heights of the chemicals (μg/ml) were converted into logarithm values (x), the toxicity equation and the median inhibition concentration EC50 were calculated by the least square method, and the toxicity index level co-toxicity coefficient (CTC) of the chemicals was calculated according to the Sun Yunpei's method. Actual toxicity index(ATI)=(EC50 of the standard reagent/EC50 of the test reagent)×100 Theoretical toxicity index(TTI)=the toxicity index of chemicalA×the percentage of A in the mixture+the toxicity index of chemical B×the percentage of B in the mixture Co-toxicity coefficient(CTC)=[Actual toxicity index(ATI) of the mixture/Theoretical toxicity index(TTI) of the mixture][…]
2. Test of Toxicity of Compound Benziothiazolinone and Dimethomorph on Cucumber Downy Mildew

[2] = tested on: cucumber downy mildew pathogenic fungi; assay: Test of toxicity of compound benziothiazolinone and epoxiconazol on cucumber downy mildew; format: in vivo; conditions: for ATI (actual toxicity index): benziothiazolinone as standard = 100; for EC50: cucumber downy mildew, Table 4
Procedure: as §1, §2
4. Test of Toxicity of Compound Benziothiazolinone and Epoxiconazol on Cucumber Downy Mildew

[3] = tested on: cucumber downy mildew pathogenic fungi; assay: Test of toxicity of compound benziothiazolinone and dithianon on cucumber downy mildew pathogenic fungi; format: in vivo; conditions: for ATI (actual toxicity index): benziothiazolinone as standard = 100; for EC50: cucumber downy mildew, Table 1
Procedure: 1. Test of Toxicity of Compound Benziothiazolinone and Dithianon on Cucumber Downy Mildew Pathogenic Fungi
Subjects for Test: Cucumber Downy Mildew Pathogenic Fungi
as §1, §2

[4] = tested on: cucumber downy mildew pathogenic fungi; assay: Test of toxicity of compound benziothiazolinone and iprodione on cucumber downy mildew; format: in vivo; conditions: for ATI (actual toxicity index): benziothiazolinone as standard = 100; for EC50: cucumber downy mildew, Table 3
Procedure: as §1, §2
3. Test of Toxicity of Compound Benziothiazolinone and Iprodione on Cucumber Downy Mildew

oomycetes fungi = conditions: formation stages of sporangiophores and oospores of oomycetes; cited from earlier work
[5] = Cucumis sativus, read-out: EC50

## O=c1[nH]sc2ccccc12 [Benziothiazolinone]
[1]
  ATI (actual toxicity index): 100.0
  EC50: 4.08 µg/mL (≈ 27 µM)
[2]
  ATI (actual toxicity index): 100.00
  EC50: 3.81 µg/mL (≈ 25.2 µM)
[3]
  ATI (actual toxicity index): 100.0
  EC50: 3.25 µg/mL (≈ 21.5 µM)
[4]
  ATI (actual toxicity index): 100.00
  EC50: 4.21 µg/mL (≈ 27.8 µM)

## COc1ccc(C(=CC(=O)N2CCOCC2)c2ccc(Cl)cc2)cc1OC [Dimethomorph]
Oomycetes fungi
  concentration at which inhibited: 0.25 µg/mL
[1]; [5]
  EC50: 6.36 µg/mL (≈ 16.4 µM)
[1]
  ATI (actual toxicity index): 63.9

## N#Cc1sc2c(=O)c3ccccc3c(=O)c=2sc1C#N [Dithianon]
[3]; [5]
  EC50: 5.41 µg/mL (≈ 18.3 µM)
[3]
  ATI (actual toxicity index): 60.1

## Fc1ccc([C@]2(Cn3cncn3)O[C@H]2c2ccccc2Cl)cc1 [Epoxiconazol]
[2]
  ATI (actual toxicity index): 89.65
  EC50: 4.25 µg/mL (≈ 12.9 µM)

## CC(C)NC(=O)N1CC(=O)N(c2cc(Cl)cc(Cl)c2)C1=O [Iprodione]
[4]; [5]
  EC50: 5.82 µg/mL (≈ 17.6 µM)
[4]
  ATI (actual toxicity index): 72.34
